The record followed here is patent US20080241280A1, “Usage of the Plant of Genus Ampelopsis and Extracts Thereof For Manufacture of Medicament and Functional Food” (priority 2004, published 2008).

What all share (type): in vivo
One assay deals with male C57/B6 mice. Put plainly: Remote sensing (telemetric) determination of mice activities. The following applies: Table 5, 20 mg/kg p.o., 6 hours after administration, control 2% EtOH. How it is done:
Remote sensing determination of mice activities.
Telemetric activity and temperature monitors were surgically implanted sub-coetaneously into male C57/B6 mice under ketamie (Alfasan, batch number: 112319) and xyalsine (Alfasan, batch number: 073210) (75/10 mg/kg, i.p.) anaesthesia to remotely record activity Correct placement was determined using X-ray radiography.

Assay [1] concerns C57/B6 mice. Put plainly: Low dose pentobarbital (16 mg/kg i.p.) sleep time in mice, loss of righting reflex. The following applies: for mice sleep time: Table 3, sodium pentobarbital 16 mg/kg i.p. The procedure:
C57/B6 mice were randomised into groups and orally administered; ECBRC-T2 (30 mg/kg), melatonin (30 mg/kg), Radix Valerianae (140 mg/kg) or vehicle (10 ml/kg H2O), 30 min prior to low dose injection of sodium pentobarbital (16 mg/kg, i/p.). The animals were then placed on a heating pad (37° C.) and their sleep latency to onset of sleep and the duration of sleep determined according to loss of righting reflex.
C57/B6 mice were randomised into groups and orally administered ECBRC-T1 (10,50,100,500 mg/kg), 30 min prior to low dose injection of sodium pentobarbital (16 mg/kg, i/p.). The animals were then placed on a heating pad (37° C.) and their sleep latency to onset of sleep and the duration of sleep determined according to loss of righting reflex. […]
The animals were then placed on a heating pad (37° C.) and their sleep latency to onset of sleep and the duration of sleep determined according to loss of righting reflex.

Assay [2] has as its system C57/B6 mice. Kind of assay: Pentobarbital (30 mg/kg i.p.) prolonged sleeping time in mice, loss of righting reflex. The following applies: 30 mg/kg oral, 30 min prior to sodium pentobarbital 30 mg/kg i.p.; p<0.05, n>4. How it is done:
C57/B6 mice were randomised into groups and orally administered; ECBRC-T2 (30 mg/kg), melatonin (30 mg/kg), Radix Valerianae (140 mg/kg) or vehicle (10 ml/kg H2O), 30 min prior to low dose injection of sodium pentobarbital (30 mg/kg, i/p.). The animals were then placed on a heating pad (37° C.) and their sleep latency to onset of sleep and the duration of sleep determined according to loss of righting reflex.

Turning to `CN1CCN(C(=O)OC2c3nccnc3C(=O)N2c2ccc(Cl)cn2)CC1` (stereo not shown) [Zopiclone, zopiclone], the “Telemetric Activity (% sleep time ± SEM)” value in the assay on male C57/B6 mice is reported as 66.6 ± 5.1 %; in the assay with male C57/B6 mice (listed as zopiclone), “significantly extended”.

As to `COc1ccc2[nH]cc(CCNC(C)=O)c2c1` [Melatonin, melatonin], the “Sleep time (min ± SEM)” value in the assay with C57/B6 mice [1] (Table 1, 30 mg/kg oral, 30 min prior to sodium pentobarbital 16 mg/kg i.p.) stood at 63 ± 11 min. For the same molecule, the figures for the mice sleep time with C57/B6 mice [1] (10 mg/kg oral), in the assay with C57/B6 mice [1] (20 mg/kg oral) and in the assay with C57/B6 mice [1] (30 mg/kg oral) were 31 ± 4 n = 4, 63 ± 5 n = 6 and 68 ± 8 n = 6, respectively. The “sleep time compared with the vehicle control group” value in the assay on C57/B6 mice [2] is reported as “significantly difference”.
